Read-outs that look alike come from different tables or passages of the source.

Type in all cases: cell-based
One assay relates to HRV99. Description: HRV99 EC50.
A further assay deals with HRV10. The experiment in a line: HRV10 HELA EC50.
The subject of another assay is HRV14. The experiment in a line: HRV14 HELA EC50 (cytopathic effect in H1-HeLa cells). The following applies: 96 h, read-out: HRV14 HELA EC50. The method, then:
H1-HeLa cells, cultured in complete RPMI 1640 medium containing 10% heat-inactivated FBS and 1% Penicillin/Streptomycin, were seeded in 96 well plates at 5000 cells/well one day prior to compound dosing and infection. The antiviral activity of each compound was measured in triplicate. Compounds were added directly to the cell cultures in serial 3-fold dilutions using the HP300 digital dispenser (Hewlett Packard, Palo Alto, CA) immediately prior to infection. The plates were transferred to BSL-2 containment and 100 μL of 1/4000 dilution of HRV14 virus stock was added to each well containing cells and serially diluted compounds. Each plate included 6 wells of infected untreated cells and 6 wells of cells containing 5 μM Rupintrivir that served as 0% and 100% virus inhibition control, respectively. Following the infection, test plates were incubated for 96 h in a tissue culture incubator set to 37° C./5% CO2. Following incubation, the H1-HeLa cells were removed from incubation and allowed to equilibrate to 25° C. Cell viability was determined by removing 100 μL of culture medium and adding 100 μL of Cell-Titer Glo viability reagent. The mixtures were incubated on a shaker for 10 minutes at 25° C., and the luminescence signal was quantified on an Envision luminescence plate reader.

A further assay concerns HCV replicon 2A. The experiment in a line: HCV Rep 2A EC50 (replicon luciferase). The method, then:
(§1) Compounds were serially diluted in ten steps of 1:3 dilutions in 384-well plates. All serial dilutions were performed in four replicates per compound within the same 384-well plate. […] To each well of a black polystyrene 384-well plate (Greiner Bio-one, Monroe, NC), 90 μL of cell culture medium (without Geneticin) containing 2000 suspended HCV replicon cells was added with a Biotek μFlow workstation. For compound transfer into cell culture plates, 0.4 μL of compound solution from the compound serial dilution plate was transferred to the cell culture plate on a Biomek FX workstation. The DMSO concentration in the final assay wells was 0.44%. The plates were incubated for 3 days at 37° C. with 5% CO2 and 85% humidity. The HCV replicon assay was a multiplex assay, able to assess both cytotoxicity and antireplicon activity from the same well. The CC50 assay was performed first. The media in the 384-well cell culture plate was aspirated, and the wells were washed four times with 100 μL of PBS each, using a Biotek ELX405 plate washer. A volume of 50 μL of a solution containing 400 nM calcein AM (Anaspec, Fremont, CA) in 1×PBS was added to each well of the plate with a Biotek μFlow workstation. The plate was incubated for 30 min at room temperature before the fluorescence signal (excitation 490 nm, emission 520 nm) was measured with a Perkin-Elmer Envision plate reader. The EC50 assay was performed in the same wells as the CC50 assay. The calcein-PBS solution in the 384-well cell culture plate was aspirated with a Biotek ELX405 plate washer. A volume of 20 μL of Dual-Glo luciferase buffer (Promega, Madison, WI) was added to each well of the plate with a Biotek μFlow Workstation. The plate was incubated for 10 min at room temperature. A volume of 20 μL of a solution containing a 1:100 mixture of Dual-Glo Stop & Glo substrate (Promega, Madison, WI) and Dual-Glo Stop & Glo buffer (Promega, Madison, WI) was added to each well of the plate with a Biotek μFlow Workstation. The plate was then incubated at room temperature for 10 min before the luminescence signal was measured with a Perkin-Elmer Envision Plate Reader.
In general terms: A replicon is a self-replicating genome or part of one, used to study replication in cells.

The next assay deals with HCV replicon 1B. Description: HCV Rep 1B EC50 (replicon luciferase). The method, then: as §1
In assay [1] the test system is Dengue serotype 2 New Guinea C (NGC) strain. Description: DENV-2 Huh-7 EC50 (qPCR in Huh7 cells). The method, boiled down: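 Huh7 cells infected 2 h at 37 °C with DENV-2 NGC at MOI 0.1, then plated with graded compound doses (0.25% DMSO) in triplicate. After 48 h, viral RNA quantified by duplex TaqMan RT-qPCR against GAPDH; EC50 normalized to positive control and no-compound wells.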

Assay [2] concerns Dengue 2, New Guinea strain (NGC). Description: DENV-2 moDC EC50 (qPCR in human monocyte-derived dendritic cells). The following applies: moDCs. The protocol: Human monocyte-derived dendritic cells (moDCs) were derived from CD14+ monocytes (AllCells) cultured in Human Mo-DC Differentiation medium containing GM-CSF and IL-4 (Miltenyi Biotec). On day 7, moDCs were harvested by mechanical disruption, washed and suspended in serum-free RPMI. moDCs were infected with Vero-derived Dengue 2, New Guinea strain (NGC) at a MOI=0.1 for two hours in serum-free RPMI with gentle agitation at 37° C. Cells were washed and resuspended in 10% serum-containing RPMI (Gibco, supplemented with sodium pyruvate, NEAA, Penicillin-Streptomycin). 10^5 cells were plated in triplicate in 96-well plates with compounds dispensed at graded doses (Hewlett-Packard D300 Digital Dispenser). All wells were normalized to 0.25% DMSO. At 48 hours, cells were washed with 1×PBS and all supernatants removed. Total RNA was extracted using RNEasy 96 plates (Qiagen) and used to generate first-strand cDNA using XLT cDNA 5× Supermix (QuantaBio). cDNA was used as a template in a Taqman qPCR duplex reaction specific to DENV2 viral and GAPDH gene expression. EC50 values were determined using Prism Graphpad software, with normalization to a positive control and no compound negative control wells.
(In general: In qPCR the cycle at which signal appears reflects the starting amount.)

The EC50 is the concentration that produces a half-maximal response. Turning to `CCC(CC)OC(=O)[C@H](C)NP(=O)(OC[C@@]1(C#N)O[C@@H](c2ccc3c(N)ncnn23)[C@H](O)[C@@H]1O)Oc1ccccc1` (stereo partly drawn) [Example 101, (2S)-pentan-3-yl 2-(((((2R,3S,4R,5S)-5-(4-aminopyrrolo[2,1-f][1,2,4]triazin-7-yl)-2-cyano-3,4-dihydroxytetrahydrofuran-2-yl)methoxy)(phenoxy)phosphoryl)amino)propanoate], the EC50 with HRV99 turned out to be 7340 nM; in the assay with HRV10 it was 1310 nM; in the assay with HRV14, 3430 nM.

Regarding `CCC(CC)COC(=O)[C@@H](C)NP(=O)(OC[C@@]1(C#N)O[C@@H](c2ccc3c(N)ncnn23)[C@H](O)[C@@H]1O)Oc1ccccc1` (stereo partly drawn) [Example 82, (2R)-2-ethylbutyl 2-(((((2R,3S,4R,5S)-5-(4-aminopyrrolo[2,1-f][1,2,4]triazin-7-yl)-2-cyano-3,4-dihydroxytetrahydrofuran-2-yl)methoxy)(phenoxy)phosphoryl)amino)propanoate], the figures for the EC50 in the assay with HRV99, in the assay on HRV10 and in the assay with HRV14 were 19300 nM, 2680 nM and 9190 nM, respectively.

For `CC(C)OC(=O)[C@H](C)NP(=O)(OC[C@@]1(C#N)O[C@@H](c2ccc3c(N)ncnn23)[C@H](O)[C@@H]1O)Oc1ccccc1` (mixture of isomers) [Example 77, Isopropyl ((((2R,3S,4R,5S)-5-(4-aminopyrrolo[2,1-f][1,2,4]triazin-7-yl)-2-cyano-3,4-dihydroxytetrahydrofuran-2-yl)methoxy)(phenoxy)phosphoryl)-L-alaninate], the EC50 with HRV99 worked out at 4940 nM; in the assay with HRV10 it was 636 nM; with HRV14, 1810 nM.

With `CC[C@H](NP(=O)(OC[C@@]1(C#N)O[C@@H](c2ccc3c(N)ncnn23)[C@H](O)[C@@H]1O)Oc1ccccc1)C(=O)OC1CCCCC1` (mixture of isomers) [Example 103, (2S)-cyclohexyl 2-(((((2R,3S,4R,5S)-5-(4-aminopyrrolo[2,1-f][1,2,4]triazin-7-yl)-2-cyano-3,4-dihydroxytetrahydrofuran-2-yl)methoxy)(phenoxy)phosphoryl)amino)butanoate], the figures for the EC50 in the assay with HRV99, in the assay with HRV10 and with HRV14 were 4740 nM, 916 nM and 2550 nM, respectively.

For `CCC(C)(C)COC(=O)[C@H](C)NP(=O)(OC[C@@]1(C#N)O[C@@H](c2ccc3c(N)ncnn23)[C@H](O)[C@@H]1O)Oc1ccccc1` (stereo partly drawn) [Example 254, 2,2-dimethylbutyl ((((2R,3S,4R,5S)-5-(4-aminopyrrolo[2,1-f][1,2,4]triazin-7-yl)-2-cyano-3,4-dihydroxytetrahydrofuran-2-yl)methoxy)(phenoxy)phosphoryl)-L-alaninate], the EC50 amounted to 787 nM with HCV replicon 2A (Hepatitis C virus, 72 h, read-out: HCV Rep 2A EC50, replicon cells, 3 days); 368 nM in the assay with HCV replicon 1B (Hepatitis C virus, 72 h, read-out: HCV Rep 1B EC50, replicon cells, 3 days); 797 nM in assay [1] (Dengue virus, DENV2, Huh-7, 48 h); 90 nM in assay [2] (Dengue virus, DENV2, Dendritic cell, 48 h).

Turning to `C[C@H](NP(=O)(OC[C@@]1(C#N)O[C@@H](c2ccc3c(N)ncnn23)[C@H](O)[C@@H]1O)Oc1ccccc1)C(=O)OCCC(C)(C)C` (single isomer, unassigned) [Example 253], the concentration for a half-maximal effect (EC50) amounted to 887 nM in the assay with HCV replicon 2A (read-out: HCV Rep 2A EC50, replicon cells, 3 days); 452 nM in the assay with HCV replicon 1B (read-out: HCV Rep 1B EC50, replicon cells, 3 days); 489 nM in assay [1] (48 hours); 429 nM in assay [2] (48 hours).

In the case of `C[C@H](NP(=O)(OC[C@@]1(C#N)O[C@@H](c2ccc3c(N)ncnn23)[C@H](O)[C@@H]1O)Oc1ccccc1)C(=O)OCC1CC1` (mixture of isomers) [Example 8, (2S)-cyclopropylmethyl 2-(((((2R,3S,4R,5S)-5-(4-aminopyrrolo[2,1-f][1,2,4]triazin-7-yl)-2-cyano-3,4-dihydroxytetrahydrofuran-2-yl)methoxy)(phenoxy)phosphoryl)amino)propanoate], the EC50 in the assay on HRV99 was 1340 nM; with HRV10, 179 nM; with HRV14, 615 nM.

The values above are taken from patent US20230295201A1 (Gilead Sciences, Inc., priority 2020, published 2023).
